Experimental findings from patent US7605172B2, “Thiazolo-naphthyl acids” (Wyeth, priority 2004, dated 2009) are described below.

The structures appear in SMILES notation.

One data set addresses human PAI-1 (Homo sapiens, UniProt P05121). As to the kind of experiment: Assay for determining IC50 of inhibition of PAI-1 (Antibody Assay). The format is binding. Conditions: active PAI-1 bound to tPA-coated plate. The procedure:
This assay is based upon the non-SDS dissociable interaction between tPA and active PAI-1. Assay plates are initially coated with human tPA (10 μg/ml). Test compounds of the present invention are dissolved in DMSO at 10 mM, then diluted with physiologic buffer (pH 7.5) to a final concentration of 1-50 μM. Test compounds are incubated with human PAI-1 (50 ng/ml) for 15 minutes at room temperature. The tPA-coated plate is washed with a solution of 0.05% Tween 20 and 0.1% BSA, then the plate is blocked with a solution of 3% BSA. An aliquot of the thiazolo-naphthyl acid/PAI-1 solution is then added to the tPA-coated plate, incubated at room temperature for 1 hour, and washed. Active PAI-1 bound to the plate is assessed by adding an aliquot of a 1:1000 dilution of the 33B8 monoclonal antibody against human PAI-1, and incubating the plate at room temperature for 1 hour (Molecular Innovations, Royal Oak, Mich.). The plate is again washed, and a solution of goat anti-mouse IgG-alkaline phosphatase conjugate is added at a 1:50,000 dilution in goat serum. The plate is incubated 30 minutes at room temperature, washed, and a solution of alkaline phosphatase substrate is added. The plate is incubated 45 minutes at room temperature, and color development is determined at OD405 nm. The quantitation of active PAI-1 bound to tPA at varying concentrations of the test compound is used to determine the IC50. Results are analyzed using a logarithmic best-fit equation. The assay sensitivity is 5 ng/ml of human PAI-1 as determined from a standard curve ranging from 0-100 ng/ml.

Data set [1] has as its target T1, recombinant human plasminogen activator inhibitor-1 (PAI-1) (Homo sapiens, UniProt P05121).
T1 construct: purchased Molecular Innovations, Royal Oak, Mich
As to the kind of experiment: Primary screen for the PAI-1 inhibition. The format is biochemical. Conditions: for inhibition at 10 µM: 10 μM test compound; for inhibition at 25 µM: 25 μM test compound. Here is the method: Test compounds are dissolved in DMSO at a final concentration of 10 mM, then diluted 100× in physiologic buffer. The inhibitory assay is initiated by the addition of the test compound (1-100 μM final concentration, maximun DMSO concentration of 0.2%) in a pH 6.6 buffer containing 140 nM recombinant human plasminogen activator inhibitor-1 (PAI-1; Molecular Innovations, Royal Oak, Mich.). Following a 1 hour incubation at room temperature, 70 nM of recombinant human tissue plasminogen activator (tPA) is added, and the combination of the test compound, PAI-1 and tPA is incubated for an additional 30 minutes. Following the second incubation, Spectrozyme-tPA (American Diagnostica, Greenwich, Conn.), a chromogenic substrate for tPA, is added and absorbance read at 405 nm at 0 and 60 minutes. Relative PAI-1 inhibition is equal to the residual tPA activity in the presence of the test compound and PAI-1. Control treatments include the complete inhibition of tPA by PAI-1 at the molar ratio employed (2:1), and the absence of any effect of the test compound on tPA alone.

T1 sequence (P05121 24-402): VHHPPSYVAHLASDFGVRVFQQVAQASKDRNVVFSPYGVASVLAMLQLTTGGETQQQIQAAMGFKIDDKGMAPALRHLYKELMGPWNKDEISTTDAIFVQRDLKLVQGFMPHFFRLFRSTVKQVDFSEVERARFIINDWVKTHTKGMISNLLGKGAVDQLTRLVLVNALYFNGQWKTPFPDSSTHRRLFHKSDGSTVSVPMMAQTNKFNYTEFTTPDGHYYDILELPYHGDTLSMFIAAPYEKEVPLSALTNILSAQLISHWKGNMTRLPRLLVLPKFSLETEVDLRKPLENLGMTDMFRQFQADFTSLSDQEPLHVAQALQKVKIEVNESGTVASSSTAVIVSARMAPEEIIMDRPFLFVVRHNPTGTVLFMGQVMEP
human PAI-1, sequence (P05121 24-402): as above

In turn, `c1ccc(-c2nc(-c3ccc4cc(OCc5nnn[nH]5)ccc4c3)cs2)cc1` [Example 2, 5-({[6-(2-phenyl-1,3-thiazol-4-yl)-2-naphthyl]oxy}methyl)-1H-tetraazole] returned a melting point of 226 to 228 °C. Further, the IC50 against human PAI-1 is 34.3 µM. Further, in data set [1], the inhibition at 10 µM was determined as 6% and the inhibition at 25 µM turned out to be 59%.

As for `Brc1c(OCc2nnn[nH]2)ccc2cc(-c3csc(-c4ccccc4)n3)ccc12` [Example 5, 5-({[1-bromo-6-(2-phenyl-1,3-thiazol-4-yl)-2-naphthyl]oxy}methyl)-1H-tetraazole], the melting point lay in the range of 227 to 231 °C. In data set [1], the inhibition at 10 µM was 42% and the inhibition at 25 µM came to 64%.

For `O=C(O)c1ccc(COc2ccc3cc(-c4csc(-c5ccccc5)n4)ccc3c2Br)cc1` (hydrate or solvate) [Example 8, 4-({[1-bromo-6-(2-phenyl-1,3-thiazol-4-yl)-2-naphthyl]oxy}methyl)benzoic acid], the melting point fell in the range of 268 to 270 °C.

Compound `O=C(O)COc1ccc2cc(-c3csc(-c4ccccc4)n3)ccc2c1Br` [Example 4, {[1-bromo-6-(2-phenyl-1,3-thiazol-4-yl)-2-naphthyl]oxy}acetic acid] showed a melting point of 222 to 230 °C. Further, the midpoint of inhibition at human PAI-1, the IC50, lay at 20.3 µM. Besides, in data set [1], the inhibition at 10 µM was 40% and the inhibition at 25 µM was found to be 68%.

Take `O=C(O)COc1ccc2cc(-c3csc(Cc4c(Cl)cccc4Cl)n3)ccc2c1` [Example 6, ({6-[2-(2,6-dichlorobenzyl)-1,3-thiazol-4-yl]-2-naphthyl}oxy)acetic acid]: the melting point lay within 205 to 207 °C. In data set [1], the inhibition at 10 µM amounted to 21% and the inhibition at 25 µM came to 43%.

In turn, `O=C(O)C(Cc1ccccc1)Oc1ccc2cc(-c3csc(-c4ccccc4)n3)ccc2c1` (stereo not drawn) [Example 1, 3-phenyl-2-{[6-(2-phenyl-1,3-thiazol-4-yl)-2-naphthyl]oxy}propanoic acid] came in with a melting point of 154 to 160 °C. The compound also yielded an IC50 at human PAI-1 of 26.2 µM. For the same compound, in data set [1], the inhibition at 10 µM worked out at 4% and the inhibition at 25 µM is 62%.

The compound `O=C(O)C(Cc1ccccc1)Oc1ccc2cc(-c3nc(-c4ccccc4)sc3Br)ccc2c1Br` (stereo not drawn) [Example 7, 2-{[1-bromo-6-(5-bromo-2-phenyl-1,3-thiazol-4-yl)-2-naphthyl]oxy}-3-phenylpropanoic acid] registered a melting point of 221 to 223 °C. In data set [1], the inhibition at 10 µM was determined as 20% and the inhibition at 25 µM is 71%.

Regarding `O=C(O)c1ccc(COc2ccc3cc(-c4csc(-c5ccccc5)n4)ccc3c2Br)cc1` [Example 8, 4-({[1-bromo-6-(2-phenyl-1,3-thiazol-4-yl)-2-naphthyl]oxy}methyl)benzoic acid], in data set [1], the inhibition at 10 µM turned out to be 38% and the inhibition at 25 µM is 49%.

In the case of `O=C(O)C(Cc1ccccc1)Oc1ccc2cc(-c3csc(-c4ccccc4)n3)ccc2c1Br` (stereo not drawn) [Example 3, 2-{[1-bromo-6-(2-phenyl-1,3-thiazol-4-yl)-2-naphthyl]oxy}-3-phenylpropanoic acid], the melting point was 220 to 224 °C. Moreover, in data set [1], the inhibition at 10 µM was 1% and the inhibition at 25 µM turned out to be 49%.

As usually defined, the IC50 is the concentration that inhibits the measured activity by half. The term inhibition denotes the drop in the measured response relative to a control, in per cent. What is called melting point is the temperature, or range, at which the solid turns liquid.
